Laboratory results: patent publication US4665019A, “Method for measuring the plasma levels of an inhibitor of (Na^+ +K^ +” (University of Maryland, priority 1983, dated 1987)

How the values were obtained:
[1] = biological target: T1, canine kidney (Na^+ +K^+)ATPase (Canis lupus familiaris, UniProt P50997); experiment: (Na+ +K+)ATPase activity assay coupled to NADH oxidation (A340); format: biochemical, canine (dog); settings: for time course of inhibition of (Na^+ +K^+)ATPase activity: FIG. 1a/1b, continuous recording of A340, 37° C.
T1 construct: suspending canine kidney (Na^+ +K^+)ATPase; purchased Sigma Chemical; host or cells: canine kidney (tissue-derived membrane preparation)
Protocol: The (Na^+ +K^+)ATPase preparation employed in the assay of this example comprised unsealed membrane sheets as described in Jorgensen, P. L. Biochim. Biophys. Acta 356: 36-52 (1974). Thus, it was not able to distinguish between an external and an internal site of action for the inhibitor.
The ATPase assay solution employed contained 400 μl of an ATPase cocktail and 580 μl of water. The ATPase cocktail was such that the final reaction conditions were (in 1.0 ml) as follows: 20 mM KCl; 100 mM NaCl; 4.5 mM MgSO4; 5 mM EGTA; 3 mM Na2 ATP; 1.2 mM tricyclohexylammonium phosphoenolpyruvate (PEP), 0.25 NADH, 40 mM trimethylaminoethanesulphonic acid (TES)-Tris, pH 7.4; 1.2 units lactate dehydrogenase (LDH); and 1.2 units pyruvate kinase (PK), (ATP, PEP, NADH, LDH and PK were purchased from Boehringer Mannheim Biochemicals; LDG and PK enzymes were obtained as glycerol suspensions.)
The (Na^+ +K^+)ATPase suspension was prepared for assay by suspending canine kidney (Na^+ +K^+)ATPase (obtained from Sigma Chemical having a specific activity of 5-6 μmol per min per mg protein and containing a ouabain-insensitive Mg^2+ -ATPase activity which was less than 2% of the total steady-state ATPase activity) in 500 μM Na4 EDTA, 10 mM (TES)-Tris pH 7.4, at a protein concentration of 150 μg/ml. The resuspended enzyme was incubated at 25° C. for 3 hours and then stored on ice.
The assay was initiated by the rapid addition of 20 μl of ATPase suspension (3 μg protein) to 980 μl of ATPase assay solution in a 1.0 ml cuvette at 37° C. The decrease in ultraviolet light absorbance at 340 nm (A340) due to NADH oxidation (ε=6.22×10^3 1 mol^-1 cm^-1) was continuously recorded using a Beckman Model 25 UV-VIS recording spectrophotometer.
FIG. 1a illustrates ATPase inhibition by ouabain. […] The control contained an appropriate quantity of DMSO.
FIG. 1b illustrates ATPase inhibition by vanadate. […] The control contained in appropriate quantity of water. […]
Percent inhibition was calculated as: [formula]

[2] = test system: ATP generating reaction system; experiment: Efficacy of the ATP generating reaction system (rates of NADH oxidation on addition of ADP); format: biochemical; settings: at the concentrations shown in FIGS. 1a and 1b; addition of 10-50 μM ADP

| Compound | time course of inhibition of (Na^+ +K^+)ATPase activity [1] | effect on the efficacy of the ATP generating reaction system [2] | Ki ([1]; from steady-state levels of (Na^+ +K^+)ATPase activity at various vanadate concentrations, 37° C.) |
| --- | --- | --- | --- |
| C[C@@H]1O[C@@H](O[C@H]2C[C@@H](O)[C@]3(CO)[C@H]4[C@H](O)C[C@]5(C)[C@@H](C6=CC(=O)OC6)CC[C@]5(O)[C@@H]4CC[C@]3(O)C2)[C@H](O)[C@H](O)[C@H]1O [ouabain] | no significant effect on the reaction for the first 30 seconds, and thereafter causes a progressive, dose-dependent increase in inhibition | Neither ouabain nor vanadate, at the concentrations shown in FIGS. 1a and 1b, had a significant effect | – |
| [Na+].[Na+].[Na+].[O]=[V]([O-])([O-])[O-] [vanadate, Na3 VO4] | the effect of vanadate was apparent in the first few seconds of the reaction | Neither ouabain nor vanadate, at the concentrations shown in FIGS. 1a and 1b, had a significant effect | 900 nM |
